This is an account of results in ChEMBL document CHEMBL1201862, “PubChem BioAssay data set” (2004).

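Grown in 96-well plates, cells were treated for 48 hours with each compound at five concentrations. Insufficient inhibition: endpoint recorded as highest concentration tested. GI50 is the concentration that inhibits growth by half.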 Activity calls are given as the source filed them. Cut-off read from the data, not from the text of the source: active = GI50 up to about 1.1 µM and inactive = higher. Some results are limits rather than exact numbers.

Among the test systems are 786-0; ACHN; BT-549; CAKI-1; CCRF-CEM; COLO 205; DLD-1; DU-145; EKVX; KM12; LOX IMVI; MCF7; NCI-H226; NCI-H23; NCI-H460; OVCAR-5; SF-268; SK-OV-3; T47D; UACC-257.
Holding throughout (assay): growth of human tumour cells (NCI), 48 h

`COC(=O)[C@]12CC=C3O[C@@H]4OC5(CCCCC5)O[C@@H]4[C@H]3C1C(=O)C=CC2=O` (some centres undefined): the GI50 is 17 µM (inactive) in the assay on 786-0; 18.5 µM (inactive) with ACHN; 19.2 µM (inactive) with BT-549; 15.9 µM (inactive) in the assay on CAKI-1; 4.13 µM (inactive) in the assay with CCRF-CEM; 15.7 µM (inactive) in the assay with COLO 205. In addition, the GI50 was 15.5 µM (inactive) in the assay on DLD-1; 21 µM (inactive) in the assay on DU-145; 33.2 µM (inactive) in the assay with EKVX; 10.9 µM (inactive) with KM12; 16.8 µM (inactive) with LOX IMVI; 16 µM (inactive) with MCF7. In addition, the GI50 is 18.6 µM (inactive) in the assay on NCI-H226; 17.1 µM (inactive) in the assay on NCI-H23; 22.3 µM (inactive) with NCI-H460; 20.5 µM (inactive) with OVCAR-5; 3.97 µM (inactive) in the assay with SF-268; 30.7 µM (inactive) with SK-OV-3. Further, the figures for the GI50 in the assay on T47D and with UACC-257 were 17.1 µM (inactive) and 16.3 µM (inactive), respectively.

As for `Nc1c(Cl)ncnc1NCCCNc1ncnc(Cl)c1N`, the GI50 with 786-0, with ACHN, in the assay with CAKI-1, with CCRF-CEM, in the assay with COLO 205 and in the assay with DLD-1 was > 100 µM (inactive) each time. In addition, the GI50 in the assay with EKVX is > 100 µM (inactive); in the assay with KM12, > 100 µM (inactive); in the assay with LOX IMVI, > 100 µM (inactive); with NCI-H226 it was > 100 µM (inactive); with NCI-H23 it was 53.8 µM (inactive); in the assay with NCI-H460, > 100 µM (inactive). Further, the GI50 in the assay on OVCAR-5 is > 100 µM (inactive); in the assay with SF-268 it was > 100 µM (inactive); in the assay with SK-OV-3 it was > 100 µM (inactive); with UACC-257 it was 67 µM (inactive).

With `COc1ccc(OC)c2c(=S)c3ccccc3[nH]c12`, the GI50 in the assay on 786-0 was > 91.8 µM (inactive); in the assay with ACHN it was 53 µM (inactive); with BT-549, > 100 µM (inactive); in the assay with CAKI-1, > 100 µM (inactive); in the assay on CCRF-CEM, 35.3 µM (inactive); in the assay on COLO 205, 55.2 µM (inactive). For the same compound, the GI50 in the assay with DLD-1 was > 100 µM (inactive); in the assay on DU-145 it was > 100 µM (inactive); with EKVX, > 90.2 µM (inactive); with KM12, > 100 µM (inactive); with LOX IMVI it was 46.8 µM (inactive); with MCF7, 36.7 µM (inactive). Moreover, the GI50 with NCI-H226 is > 21.5 µM (inactive); in the assay on NCI-H23, 99.8 µM (inactive); in the assay on NCI-H460, > 63 µM (inactive); with OVCAR-5, > 94.8 µM (inactive); in the assay with SF-268 it was > 86.1 µM (inactive); in the assay with SK-OV-3, > 100 µM (inactive). Moreover, the figures for the GI50 with T47D and in the assay with UACC-257 were > 100 µM (inactive) and > 73.8 µM (inactive), respectively.

For `COc1cc(C2C(Cl)C(=O)N2n2cnc3ccccc3c2=O)cc(OC)c1OC` (centres undefined), the GI50 with 786-0 is > 100 µM (inactive); in the assay on ACHN, > 100 µM (inactive); in the assay with CAKI-1, 67.1 µM (inactive); in the assay with CCRF-CEM it was 82 µM (inactive); with COLO 205, > 100 µM (inactive); in the assay on DLD-1, > 100 µM (inactive). In addition, the GI50 with EKVX was 92 µM (inactive); in the assay with KM12, 41.9 µM (inactive); in the assay on LOX IMVI, 57.4 µM (inactive); in the assay on NCI-H226, > 100 µM (inactive); in the assay on NCI-H23, > 100 µM (inactive); in the assay on NCI-H460, > 100 µM (inactive). Further, the GI50 with OVCAR-5 is > 100 µM (inactive); in the assay with SF-268, > 100 µM (inactive); in the assay with SK-OV-3, > 100 µM (inactive); in the assay with UACC-257, 55.8 µM (inactive).

For `Cc1ccc(S(=O)(=O)OC2CSSCC2OS(=O)(=O)c2ccc(C)cc2)cc1` (centres undefined), the GI50 with 786-0 was 12.6 µM (inactive); in the assay on ACHN it was 15.3 µM (inactive); with CAKI-1, 12.5 µM (inactive); in the assay on CCRF-CEM, 4.35 µM (inactive); with COLO 205 it was 13.7 µM (inactive); with DLD-1, 11 µM (inactive). Besides, the GI50 with EKVX was 29.8 µM (inactive); with KM12 it was 14.1 µM (inactive); in the assay on LOX IMVI, 13.8 µM (inactive); with NCI-H226, 17.9 µM (inactive); with NCI-H23, 17.9 µM (inactive); in the assay with NCI-H460 it was 17.7 µM (inactive). For the same compound, the GI50 in the assay on OVCAR-5 was 23.4 µM (inactive); in the assay with SF-268, 14.7 µM (inactive); in the assay on SK-OV-3, 20.5 µM (inactive); in the assay on UACC-257, 10.2 µM (inactive).

As to `COc1cccc(NC(=O)/C(CS(=O)(=O)CCC(C(C)=O)C(C)=O)=N/NC(C)(C)C)c1`, the GI50 in the assay with 786-0, in the assay with ACHN, in the assay with CAKI-1, in the assay on CCRF-CEM, in the assay with COLO 205 and with DLD-1 was > 100 µM (inactive) in each case. Also, the GI50 with EKVX, with KM12, in the assay with LOX IMVI, in the assay on NCI-H226, in the assay with NCI-H23 and with NCI-H460 was > 100 µM (inactive) in each case. For the same compound, the GI50 in the assay on OVCAR-5, with SF-268, in the assay on SK-OV-3 and with UACC-257 was > 100 µM (inactive) throughout.

Turning to `Cc1c2cc[n+](C)cc2c(C)c2c1sc1ccccc12`, the GI50 is 0.204 µM (active) in the assay with 786-0; 4.7 µM (inactive) in the assay on ACHN; 0.294 µM (active) in the assay with BT-549; 3.46 µM (inactive) with CAKI-1; 0.776 µM (active) in the assay with CCRF-CEM; 1.07 µM (active) with COLO 205. In addition, the GI50 was 3.05 µM (inactive) with DLD-1; 1.48 µM (inactive) with DU-145; 3.01 µM (inactive) in the assay on EKVX; 0.457 µM (active) with KM12; 4.06 µM (inactive) with LOX IMVI; 1.3 µM (inactive) in the assay with MCF7. The GI50 in the assay with NCI-H226 is 0.383 µM (active); with NCI-H23, 0.528 µM (active); with NCI-H460, 0.35 µM (active); with OVCAR-5, 3.86 µM (inactive); with SF-268, 0.199 µM (active); with SK-OV-3, 1.49 µM (inactive). Moreover, the GI50 in the assay with T47D was 0.798 µM (active); with UACC-257 it was 1.94 µM (inactive).
